Source: patent US5214047A, “Tetracyclic quinazoline derivatives, effective as antiarrythmic agents” (priority 1987, dated 1993)
Where a name gives a salt, the structure may show the parent alone. Read-outs that look alike come from different tables or passages of the source.

Test system: QT interval
Test: QT interval prolongation (ECG, class III action) in anesthetized guinea pigs
Type: in vivo, Pirbright white guinea pigs
Details: for ED (20%): Cavia porcellus, read-out: Prolongation of the QT interval ED20%; for Potency relative to that of d-sotalol = 1.0: QT prolongation, ED20%
Method: The action of the novel substances has been tested as follows:
The experimental animals used were male and female Pirbright white guinea pigs weighing 300-500 g. 1.5 g/kg urethane i.p. were used for anesthesia. The substances were administered intravenously. The extremity lead II was recorded to measure the ECG conduction times and the heart rate. The measured variables were the QT and PQ intervals and the heart rate. 4-6 animals were used for each dose. The criterion for a class III action was an increase in the QT interval compared with the values before administration of the substance. A PQ increase and a large decrease in the heart rate were used as exclusion criteria. The ED20% is calculated from the linear relation between log dose (mg/kg) of the substance and the relative prolongation of the QT interval (Δ%).

[1] = guinea pigs, urethane anesthesia, intravenous, dose for 20% QT prolongation calculated from log dose (mg/kg) vs relative QT prolongation

Cc1ccc(C23CCCN2c2ccccc2C2=NCCN23)cc1 (stereo not drawn) [Example 1, 2,3,5,6,7,8-Hexahydro-5-(4-methylphenyl)imidazo[1,2-c]pyrrolo[1,2-a]quinazoline]
ED (20%) [1]: 1 mg/kg
Potency relative to that of d-sotalol = 1.0 (guinea pigs, intravenous): 3.6

Clc1ccc(C23CCCN2c2ccccc2C2=NCCN23)cc1 (stereo not drawn) [Example 2]
ED (20%) (iv): 1.1 mg/kg
Potency relative to that of d-sotalol = 1.0 (guinea pigs, intravenous): 3.3

Fc1ccc(C23CCCN2c2ccccc2C2=NCCN23)cc1 (stereo not drawn) [Example 4, 5-(4-Fluorophenyl)-2,3,5,6,7,8-hexahydroimidazo[1,2-c]pyrrolo[1,2-a]quinazoline]
ED (20%) [1]: 0.21 mg/kg
Potency relative to that of d-sotalol = 1.0 (guinea pigs, intravenous): 17

COc1cc2c(cc1OC)N1CCCC1(c1ccccc1)N1CCN=C21 (stereo not drawn) [Example 5, 2,3,5,6,7,8-Hexahydro-11,12-dimethoxy-5-phenylimidazo[1,2-c]pyrrolo[1,2-a]quinazoline]
ED (20%) [1]: 1 mg/kg
Potency relative to that of d-sotalol = 1.0 (guinea pigs, intravenous): 3.5

COc1ccc(C23CCCN2c2ccccc2C2=NCCN23)cc1 (stereo not drawn) [Example 8]
ED (20%) [1]: 0.61 mg/kg
Potency relative to that of d-sotalol = 1.0 (guinea pigs, intravenous): 6.0

Clc1ccc(C23CCCN2c2ccccc2C2=NCCN23)cc1Cl (stereo not drawn) [Example 9]
ED (20%) [1]: 1.5 mg/kg
Potency relative to that of d-sotalol = 1.0 (guinea pigs, intravenous): 2.4

Clc1ccc2c(c1)N1CCCC1(c1ccccc1)N1CCN=C21 (stereo not drawn) [Example 11, 11-Chloro-2,3,5,6,7,8-hexahydro-5-phenylimidazo[1,2-c]pyrrolo[1,2-a]quinazoline]
ED (20%) [1]: 0.4 mg/kg
Potency relative to that of d-sotalol = 1.0 (guinea pigs, intravenous): 9.0

Clc1ccc(C23CCCN2c2ccccc2C2=NCCN23)c(Cl)c1 (stereo not drawn) [Example 13, 5-(2,4-Dichlorophenyl)-2,3,5,6,7,8-hexahydroimidazo[1,2-c]pyrrolo[1,2-a]quinazoline hydrochloride]
ED (20%) [1]: 0.99 mg/kg
Potency relative to that of d-sotalol = 1.0 (guinea pigs, intravenous): 3.7

Fc1ccc(C23CCCN2c2cc(Cl)ccc2C2=NCCN23)cc1 (stereo not drawn) [Example 15, 11-Chloro-5-(4-fluorophenyl)-2,3,5,6,7,8-hexahydroimidazo[1,2-c]pyrrolo[1,2-a]quinazoline hydrochloride]
ED (20%) [1]: 0.43 mg/kg
Potency relative to that of d-sotalol = 1.0 (guinea pigs, intravenous): 8.5

Clc1ccc(C23CCCN2c2ccccc2C2=NCCN23)s1 (stereo not drawn) [Example 19, 5-(2-(5-Chlorothienyl))-2,3,5,6,7,8-hexahydroimidazo[1,2-c]pyrrolo[1,2-a]quinazoline hydrochloride]
ED (20%) [1]: 1.4 mg/kg
Potency relative to that of d-sotalol = 1.0 (guinea pigs, intravenous): 2.6

O=[N+]([O-])c1ccc(C23CCCN2c2ccccc2C2=NCCN23)cc1 (stereo not drawn) [Example 21, 2,3,5,6,7,8-Hexahydro-5-(4-nitrophenyl)imidazo[1,2-c]pyrrolo[1,2-a]quinazoline hydrochloride]
ED (20%) [1]: 0.46 mg/kg
Potency relative to that of d-sotalol = 1.0 (guinea pigs, intravenous): 8.0

c1ccc(C23CCCN2c2ccccc2C2=NC4CCCCC4N23)cc1 (stereo not drawn) [Example 22, 2,3,5,6,7,8-Hexahydro-2,3-tetramethylene-5-phenylimidazo[1,2-c]pyrrolo[1,2-a]quinazoline]
ED (20%) (iv): 0.56 mg/kg
Potency relative to that of d-sotalol = 1.0 (guinea pigs, intravenous): 6.5

CC1CN=C2c3ccccc3N3CCCC3(c3ccccc3)N21 (stereo not drawn) [Example 24, hydrochloride]
ED (20%) [1]: 0.29 mg/kg
Potency relative to that of d-sotalol = 1.0 (guinea pigs, intravenous): 12

c1csc(C23CCCN2c2ccccc2C2=NCCCN23)c1 (stereo not drawn) [Example 25]
ED (20%) [1]: 0.58 mg/kg
Potency relative to that of d-sotalol = 1.0 (guinea pigs, intravenous): 6.2

Clc1ccc(C23CCCN2c2ccccc2C2=NCCCN23)cc1 (stereo not drawn) [Example 26, 6-(4-Chlorophenyl)-2,3,6,7,8,9-hexahydro-2H-pyrimido[1,2-c]pyrrolo[1,2-a]quinazoline]
ED (20%) [1]: 1.5 mg/kg
Potency relative to that of d-sotalol = 1.0 (guinea pigs, intravenous): 2.4

Fc1ccc(C23CCCN2c2ccccc2C2=NCCCN23)cc1 (stereo not drawn) [Example 27, 6-(4-Fluorophenyl)-2,3,5,6,7,8-hexahydro-2H-pyrimido[1,2-c]pyrrolo[1,2-a]quinazoline]
ED (20%) [1]: 0.42 mg/kg
Potency relative to that of d-sotalol = 1.0 (guinea pigs, intravenous): 8.7

Clc1ccc(C23CCCN2c2ccccc2C2=NCCCN23)cc1Cl (stereo not drawn) [Example 28, 6-(3,4-Dichlorophenyl)-2,3,5,6,7,8-hexahydro-2H-pyrimido[1,2-c]pyrrolo[1,2-a]quinazoline]
ED (20%) [1]: 0.94 mg/kg
Potency relative to that of d-sotalol = 1.0 (guinea pigs, intravenous): 3.9

Clc1ccc2c(c1)C1=NCCCN1C1(c3ccccc3)CCCN21 (stereo not drawn) [Example 29, 13-Chloro-2,3,5,6,7,8-hexahydro-6-phenyl-2H-pyrimido[1,2-c]pyrrolo[1,2-a]quinazoline hydrochloride]
ED (20%) [1]: 0.55 mg/kg
Potency relative to that of d-sotalol = 1.0 (guinea pigs, intravenous): 6.6

Fc1ccc(C23CCCN2c2ccc(Cl)cc2C2=NCCCN23)cc1 (stereo not drawn) [Example 30, 13-Chloro-6-(4-fluorophenyl)-2,3,5,6,7,8-hexahydro-2H-pyrimido[1,2-c]pyrrolo[1,2-a]quinazoline]
ED (20%) [1]: 1 mg/kg
Potency relative to that of d-sotalol = 1.0 (guinea pigs, intravenous): 3.6

O=[N+]([O-])c1cccc(C23CCCN2c2ccccc2C2=NCCCN23)c1 (stereo not drawn) [Example 31, 2,3,5,6,7,8-Hexahydro-6-(3-nitrophenyl)-2H-pyrimido[1,2-c]pyrrolo[1,2-a]quinazoline]
ED (20%) [1]: 0.56 mg/kg
Potency relative to that of d-sotalol = 1.0 (guinea pigs, intravenous): 6.5

Clc1ccc(C23CCCN2c2ccccc2C2=NCCCN23)s1 (stereo not drawn) [Example 33, 6-(2-(5-Chlorothienyl))-2,3,5,6,7,8-hexahydro-2H-pyrimido[1,2-c]pyrrolo[1,2-a]quinazoline]
ED (20%) [1]: 1.5 mg/kg
Potency relative to that of d-sotalol = 1.0 (guinea pigs, intravenous): 2.4

O=[N+]([O-])c1ccc(C23CCCN2c2ccccc2C2=NCCCN23)cc1 (stereo not drawn) [Example 34, 2,3,5,6,7,8-Hexahydro-6-(4-nitrophenyl)-2H-pyrimido[1,2-c]pyrrolo[1,2-a]quinazoline]
ED (20%) [1]: 0.61 mg/kg
Potency relative to that of d-sotalol = 1.0 (guinea pigs, intravenous): 6.0

COc1ccc(C23CCCN2c2ccccc2C2=NCCCN23)cc1 (stereo not drawn) [Example 35, 2,3,5,6,7,8-Hexahydro-6-(4-methoxyphenyl)-2H-pyrimido[1,2-c]pyrrolo[1,2-a]quinazoline hydrochloride]
ED (20%) [1]: 0.63 mg/kg
Potency relative to that of d-sotalol = 1.0 (guinea pigs, intravenous): 5.7

Clc1ccc2c(c1)N1CCCC1(c1ccccc1)N1CCCN=C21 (stereo not drawn) [Example 37, 12-Chloro-2,3,5,6,7,8-hexahydro-6-phenyl-2H-pyrimido[1,2-c]pyrrolo[1,2-a]quinazoline hydrochloride]
ED (20%) [1]: 0.69 mg/kg
Potency relative to that of d-sotalol = 1.0 (guinea pigs, intravenous): 5.3

Fc1ccc(C23CCCN2c2cc(Cl)ccc2C2=NCCCN23)cc1 (stereo not drawn) [Example 38, 2-Chloro-6-(4-fluorophenyl)-2,3,5,6,7,8-hexahydro-2H-pyrimido[1,2-c]pyrrolo[1,2-a]quinazoline hydrochloride]
ED (20%) [1]: 0.83 mg/kg
Potency relative to that of d-sotalol = 1.0 (guinea pigs, intravenous): 4.4

CC1(C)CN=C2c3ccccc3N3CCCC3(c3ccccc3)N2C1 (stereo not drawn) [Example 41, 2,3,5,6,7,8-Hexahydro-3,3-dimethyl-6-phenyl-2H-pyrimido[1,2-c]pyrrolo[1,2-a]quinazoline hydrochloride]
ED (20%) [1]: 0.46 mg/kg
Potency relative to that of d-sotalol = 1.0 (guinea pigs, intravenous): 7.8

CC1(C)CN=C2c3ccccc3N3CCCC3(c3ccc([N+](=O)[O-])cc3)N2C1 (stereo not drawn) [Example 42, 2,3,5,6,7,8-Hexahydro-3,3-dimethyl-6-(4-nitrophenyl)-2H-pyrimido[1,2-c]pyrrolo[1,2-a]quinazoline hydrochloride]
ED (20%) [1]: 0.78 mg/kg
Potency relative to that of d-sotalol = 1.0 (guinea pigs, intravenous): 4.7

CC1(C)CN=C2c3ccccc3N3CCCC3(c3ccccc3)N21 (stereo not drawn) [Example 43, 2,3,5,6,7,8-Hexahydro-3,3-dimethyl-5-phenylimidazo[1,2-c]pyrrolo[1,2-a]quinazoline hydrochloride]
ED (20%) [1]: 0.6 mg/kg
Potency relative to that of d-sotalol = 1.0 (guinea pigs, intravenous): 6.1

CC1(C)CCN=C2c3ccccc3N3CCCC3(c3ccccc3)N21 (stereo not drawn) [Example 44, 2,3,5,6,7,8-Hexahydro-4,4-dimethyl-6-phenyl-2H-pyrimido[1,2-c]pyrrolo[1,2-a]quinazoline hydrochloride]
ED (20%) [1]: 0.49 mg/kg
Potency relative to that of d-sotalol = 1.0 (guinea pigs, intravenous): 7.4

CC1(C)CN=C2c3ccccc3N3CCCC3(c3ccc(F)cc3)N21 (stereo not drawn) [Example 45, hydrochloride]
ED (20%) [1]: 0.59 mg/kg
Potency relative to that of d-sotalol = 1.0 (guinea pigs, intravenous): 6.2

CC1(C)CN=C2c3ccccc3N3CCCC3(c3ccc([N+](=O)[O-])cc3)N21 (stereo not drawn) [Example 46, 2,3,5,6,7,8-Hexahydro-3,3-dimethyl-5-(4-nitrophenyl)imidazo[1,2-c]pyrrolo[1,2-a]quinazoline hydrochloride]
ED (20%) [1]: 0.55 mg/kg
Potency relative to that of d-sotalol = 1.0 (guinea pigs, intravenous): 6.7

CC1(C)CCN=C2c3ccccc3N3CCCC3(c3ccc([N+](=O)[O-])cc3)N21 (stereo not drawn) [Example 47, 2,3,5,6,7,8-Hexahydro-4,4-dimethyl-6-(4-nitrophenyl)-2H-pyrimido[1,2-c]pyrrolo[1,2-a]quinazoline hydrochloride]
ED (20%) [1]: 0.52 mg/kg
Potency relative to that of d-sotalol = 1.0 (guinea pigs, intravenous): 7.0

CC1CN=C2c3ccccc3N3CCCC3(c3ccc([N+](=O)[O-])cc3)N21 (stereo not drawn) [Example 48, 2,3,5,6,7,8-Hexahydro-3-methyl-5-(4-nitrophenyl)imidazo[1,2-c]pyrrolo[1,2-a]quinazoline hydrochloride]
ED (20%) [1]: 0.31 mg/kg
Potency relative to that of d-sotalol = 1.0 (guinea pigs, intravenous): 11.8

c1ccc(C23CCCN2c2ccccc2C2=NCCCN23)cc1 (stereo not drawn) [Example 49, 2,3,5,6,7,8-Hexahydro-6-phenyl-2H-pyrimido[1,2-c]pyrrolo[1,2-a]quinazoline hydrochloride]
ED (20%) [1]: 0.32 mg/kg
Potency relative to that of d-sotalol = 1.0 (guinea pigs, intravenous): 11

c1ccc(C23CCCN2c2ccccc2C2=NCCN23)cc1 (stereo not drawn) [Example 50, hydrochloride]
ED (20%) [1]: 0.25 mg/kg
Potency relative to that of d-sotalol = 1.0 (guinea pigs, intravenous): 15

CS(=O)(=O)Oc1ccc(C23CCCN2c2ccccc2C2=NCCN23)cc1 (stereo not drawn) [Example 53, hydrochloride]
ED (20%) [1]: 1 mg/kg
Potency relative to that of d-sotalol = 1.0 (guinea pigs, intravenous): 3.6
